Test results: PMC10636171 (Cell Death & Disease, 2023)

Experiments:
MHCC97H = experiment: CCK8 antiproliferative assay; assay type: cell-based; details: Homo sapiens, CCK-8, 72 h, read-out: IC50, cell proliferation
Description: (§1) For cytotoxicity assay, the cells grown in the logarithmic phase were seeded into 96-well plates (7 × 10^3 cells/well) for 24 h, then exposed to different concentrations (10, 5, 1, 0.1, 0.01 and 0.001 μM) of the test compounds for 72 h. After attached cells were incubated with CCK8 (Sigma, USA) for another 1–4 h. Then the absorbance at 450 nm was measured using a multifunction microplate reader (Molecular Devices, Flex Station 3), and each experiment was performed at least in triplicate.

MKN45 = experiment: CCK8 antiproliferative assay; assay type: cell-based; details: Homo sapiens, MKN-45; MKN45, CCK-8, 72 h; read-out: IC50, cell proliferation
Description: as §1

ASPC1 = experiment: CCK8 antiproliferative assay; assay type: cell-based; details: Homo sapiens; ASPC1, CCK8, 72 h; read-out: IC50, cell proliferation
Description: as §1

HS746T = experiment: CCK8 antiproliferative assay; assay type: cell-based; details: Homo sapiens; HS746T, CCK8, 72 h; read-out: IC50, cell proliferation
Description: as §1

BMX = biological target: T1, BMX (Homo sapiens, UniProt P51813); experiment: HTRF/ADP-Glo kinase selectivity panel; assay type: biochemical; details: 500 nM, read-out: 1D228(%inhibition)@500nM
T1 construct: purchased Invitrogen (c-Met, TRKA, TRKB, TRKC)
Description: (§2) The compound was serial diluted from 10 mM stock in DMSO, dilute the test compound to 0.1 mM (200 times the specified test concentration). 2 × ATP & Substrate solution and 2 × kinase & Metal solution were prepared using assay buffer; Transfer 25 nL compound to 384 assay plate by Echo 655; After centrifugation, add 2.5 μL 2 × kinase/metal ion solution 384 assay plate, and incubate at 25 °C for 10 min. 2 × XL665 & Antibody solution were prepared with detection buffer; 5 μL of Kinase Detection Reagent was added to the well, and incubated for 60 min at 25 °C; The fluorescence signals of 620 nm (Cryptate) and 665 nm (XL665) were read by microtiter plate reader; […]

FLT3 = biological target: T2, FLT3 (Homo sapiens, UniProt P36888); experiment: HTRF/ADP-Glo kinase selectivity panel; assay type: biochemical; details: 500 nM, read-out: 1D228(%inhibition)@500nM
T2 construct: purchased Invitrogen (c-Met, TRKA, TRKB, TRKC)
Description: as §2

YES = biological target: T3, YES (Homo sapiens, UniProt P07947); experiment: HTRF/ADP-Glo kinase selectivity panel; assay type: biochemical; details: 500 nM, read-out: 1D228(%inhibition)@500nM
T3 construct: purchased Invitrogen (c-Met, TRKA, TRKB, TRKC)
Description: as §2

EPHB1 = biological target: T4, EPHB1 (Homo sapiens, UniProt P54762); experiment: HTRF/ADP-Glo kinase selectivity panel; assay type: biochemical; details: 500 nM, read-out: 1D228(%inhibition)@500nM
T4 construct: purchased Invitrogen (c-Met, TRKA, TRKB, TRKC)
Description: as §2

FER = biological target: T5, FER (Homo sapiens, UniProt P16591); experiment: HTRF/ADP-Glo kinase selectivity panel; assay type: biochemical; details: 500 nM, read-out: 1D228(%inhibition)@500nM
T5 construct: purchased Invitrogen (c-Met, TRKA, TRKB, TRKC)
Description: as §2

PDGFRβ = biological target: T6, PDGFRβ (Homo sapiens, UniProt P09619); experiment: HTRF/ADP-Glo kinase selectivity panel; assay type: biochemical; details: 500 nM, read-out: 1D228(%inhibition)@500nM
T6 construct: purchased Invitrogen (c-Met, TRKA, TRKB, TRKC)
Description: as §2

TEC = biological target: T7, TEC (Homo sapiens, UniProt P42680); experiment: HTRF/ADP-Glo kinase selectivity panel; assay type: biochemical; details: 500 nM, read-out: 1D228(%inhibition)@500nM
T7 construct: purchased Invitrogen (c-Met, TRKA, TRKB, TRKC)
Description: as §2

TIE2 = biological target: T8, TIE2 (Homo sapiens, UniProt Q02763); experiment: HTRF/ADP-Glo kinase selectivity panel; assay type: biochemical; details: 500 nM, read-out: 1D228(%inhibition)@500nM
T8 construct: purchased Invitrogen (c-Met, TRKA, TRKB, TRKC)
Description: as §2

ZAP70 = biological target: T9, ZAP70 (Homo sapiens, UniProt P43403); experiment: HTRF/ADP-Glo kinase selectivity panel; assay type: biochemical; details: 500 nM, read-out: 1D228(%inhibition)@500nM
T9 construct: purchased Invitrogen (c-Met, TRKA, TRKB, TRKC)
Description: as §2

TRKB = biological target: T10, TRKB (Homo sapiens, UniProt Q16620); experiment: HTRF/ADP-Glo kinase selectivity panel; assay type: biochemical; details: 500 nM, read-out: 1D228(%inhibition)@500nM
T10 construct: purchased Invitrogen
Description: as §2

FYN [b] = biological target: T11, FYN [b] (Homo sapiens, UniProt P06241); experiment: HTRF/ADP-Glo kinase selectivity panel; assay type: biochemical; details: 500 nM, read-out: 1D228(%inhibition)@500nM
T11 construct: purchased Invitrogen (c-Met, TRKA, TRKB, TRKC)
Description: as §2

FYN [a] = biological target: T12, FYN [a] (Homo sapiens, UniProt P06241); experiment: HTRF/ADP-Glo kinase selectivity panel; assay type: biochemical; details: 500 nM, read-out: 1D228(%inhibition)@500nM
T12 construct: purchased Invitrogen (c-Met, TRKA, TRKB, TRKC)
Description: as §2

JAK2 = biological target: T13, JAK2 (Homo sapiens, UniProt O60674); experiment: HTRF/ADP-Glo kinase selectivity panel; assay type: biochemical; details: 500 nM, read-out: 1D228(%inhibition)@500nM
T13 construct: purchased Invitrogen (c-Met, TRKA, TRKB, TRKC)
Description: as §2

MHCC97H xenograft tumor = MHCC97H xenograft tumor model; assay type: in vivo, BALB/c nude mice; details: ig, calculated through tumor weight
Description: Male BALB/c nude mice (5-week old, 18–20 g) were purchased from Beijing Vital River Laboratory Animal Technology (Beijing Vital River LaboratoryAnimal Technology Co., Ltd., Beijing,China) and allowed to acclimate for 1 week, maintained at constant room temperature and fed a standard rodent chow and water. 1 × 10^7 cells/mL cancer cells grown in logarithmic phase were harvested and resuspended in FBS-free 1640 medium. Then, 100 μL of the cell suspension was subcutaneously injected into the right flank of each mouse. When the tumour volume was reached about 600–800 mm^3, it was removed, minced into small pieces of equal volume (2 × 2 × 2 mm^3), and transplanted subcutaneously into the nude mice. When the tumour volume was reached about 200–400 mm^3, the xenograft tumour-bearing nude mice were randomly allocated to five groups (vehicle-treated, 1D228-2mgd-treated, 1D228-4mgd-treated […] Tepotinib-treated groups, with 6 or 8 mice (The number of mice were determined according to previous experience on xenograft tumor models) per group. Each group was dosed by intragastric administration (ig) for 7–14 days. Tumour volume and body weights were recorded every day after drug treatment. At the end of the observation period, the animals were euthanized by cervical dislocation and the tumour bulks were peeled off conformed to the Guide for the Care and Use of Laboratory Animals as published by the US National Institutes of Health (NIH Publication No. 85-23, revised 1996) and approved by the Institutional Ethics Review Board of Binzhou Medical University. There was no blinding was done during the animal experiment. No animals were excluded from the analysis.

MNK45 cell line = experiment: Apoptosis assay, annexin V and PI staining, flow cytometry; assay type: cell-based, human; details: control group 5%
Description: MHCC97H or MKN45 cells were seeded in 6-well plates (3 × 10^4 cells/well) and incubated in the presence or absence of compound 1D228, for the cell apoptosis assay, cells were harvested and incubated with 5 μL of Annexin-V/FITC (Keygen Biotech, China) in binding buffer (10 mM HEPES, 140 mM NaCl, and 2.5 mM CaCl2 at pH 7.4) at room temperature for 15 min. PI solution was then added to the medium for another 10 min-incubation. Almost 10,000 events were collected for each sample and analysed by flow cytometry (Beckman Coulter, Epics XL). For the cell cycle assay, cells were fixed in ice-cold 70% ethanol overnight. After the ethanol was removed the next day, the cells were re-suspended in ice-cold PBS, treated with RNAse A (Keygen Biotech, China) at 37 °C for 30 min, and then incubated with the DNA staining solution propidium iodide (PI, Keygen Biotech, China) at 4 °C for 30 min. Approximately 10,000 events were detected by flow cytometry (Beckman Coulter, Epics XL) at 488 nm. The data regarding the number of cells in different phases of the cell cycle were analysed using EXPO32 ADC analysis software.

T3 sequence (P07947 whole entry): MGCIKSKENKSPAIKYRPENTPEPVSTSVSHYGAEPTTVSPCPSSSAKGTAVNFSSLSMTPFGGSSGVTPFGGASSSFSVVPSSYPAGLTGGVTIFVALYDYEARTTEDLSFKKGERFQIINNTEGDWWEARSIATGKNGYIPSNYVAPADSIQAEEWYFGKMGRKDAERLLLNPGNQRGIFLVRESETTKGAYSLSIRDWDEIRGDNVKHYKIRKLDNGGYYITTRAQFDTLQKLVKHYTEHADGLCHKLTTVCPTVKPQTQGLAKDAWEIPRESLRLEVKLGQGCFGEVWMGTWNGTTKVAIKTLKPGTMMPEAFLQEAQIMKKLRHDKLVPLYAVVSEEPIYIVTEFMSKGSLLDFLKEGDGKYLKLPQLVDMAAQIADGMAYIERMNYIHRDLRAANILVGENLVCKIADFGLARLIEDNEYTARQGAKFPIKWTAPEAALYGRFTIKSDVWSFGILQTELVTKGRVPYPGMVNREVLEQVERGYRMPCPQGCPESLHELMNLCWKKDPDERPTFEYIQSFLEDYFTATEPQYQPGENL
T6 sequence (P09619 33-1106): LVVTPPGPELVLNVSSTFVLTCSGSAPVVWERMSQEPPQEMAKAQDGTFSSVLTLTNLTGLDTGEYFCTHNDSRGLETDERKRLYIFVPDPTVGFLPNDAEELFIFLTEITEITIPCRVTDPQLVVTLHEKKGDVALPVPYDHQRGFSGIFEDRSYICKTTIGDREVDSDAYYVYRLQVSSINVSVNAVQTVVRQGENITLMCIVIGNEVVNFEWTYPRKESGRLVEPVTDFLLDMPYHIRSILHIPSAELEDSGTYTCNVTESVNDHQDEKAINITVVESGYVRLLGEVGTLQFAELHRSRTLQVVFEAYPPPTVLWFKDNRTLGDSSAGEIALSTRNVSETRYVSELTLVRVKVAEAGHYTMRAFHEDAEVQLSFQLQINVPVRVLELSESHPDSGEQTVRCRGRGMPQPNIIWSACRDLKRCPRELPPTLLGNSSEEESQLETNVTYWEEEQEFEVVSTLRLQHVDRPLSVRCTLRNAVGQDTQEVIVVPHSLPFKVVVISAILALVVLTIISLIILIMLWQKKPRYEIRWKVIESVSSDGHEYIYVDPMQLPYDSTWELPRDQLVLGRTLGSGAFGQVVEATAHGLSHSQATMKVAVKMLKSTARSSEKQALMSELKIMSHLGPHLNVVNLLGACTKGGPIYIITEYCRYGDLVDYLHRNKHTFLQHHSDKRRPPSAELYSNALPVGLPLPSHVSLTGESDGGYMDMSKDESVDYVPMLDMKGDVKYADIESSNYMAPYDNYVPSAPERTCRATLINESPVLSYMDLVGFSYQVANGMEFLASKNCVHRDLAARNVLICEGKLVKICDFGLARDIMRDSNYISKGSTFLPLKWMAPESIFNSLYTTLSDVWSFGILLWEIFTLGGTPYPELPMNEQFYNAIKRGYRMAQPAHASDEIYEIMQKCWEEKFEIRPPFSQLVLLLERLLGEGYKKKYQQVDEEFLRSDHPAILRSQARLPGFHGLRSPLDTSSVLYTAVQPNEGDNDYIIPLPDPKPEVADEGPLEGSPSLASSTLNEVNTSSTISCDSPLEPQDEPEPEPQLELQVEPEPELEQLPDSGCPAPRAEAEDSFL
T2 sequence (P36888 27-993): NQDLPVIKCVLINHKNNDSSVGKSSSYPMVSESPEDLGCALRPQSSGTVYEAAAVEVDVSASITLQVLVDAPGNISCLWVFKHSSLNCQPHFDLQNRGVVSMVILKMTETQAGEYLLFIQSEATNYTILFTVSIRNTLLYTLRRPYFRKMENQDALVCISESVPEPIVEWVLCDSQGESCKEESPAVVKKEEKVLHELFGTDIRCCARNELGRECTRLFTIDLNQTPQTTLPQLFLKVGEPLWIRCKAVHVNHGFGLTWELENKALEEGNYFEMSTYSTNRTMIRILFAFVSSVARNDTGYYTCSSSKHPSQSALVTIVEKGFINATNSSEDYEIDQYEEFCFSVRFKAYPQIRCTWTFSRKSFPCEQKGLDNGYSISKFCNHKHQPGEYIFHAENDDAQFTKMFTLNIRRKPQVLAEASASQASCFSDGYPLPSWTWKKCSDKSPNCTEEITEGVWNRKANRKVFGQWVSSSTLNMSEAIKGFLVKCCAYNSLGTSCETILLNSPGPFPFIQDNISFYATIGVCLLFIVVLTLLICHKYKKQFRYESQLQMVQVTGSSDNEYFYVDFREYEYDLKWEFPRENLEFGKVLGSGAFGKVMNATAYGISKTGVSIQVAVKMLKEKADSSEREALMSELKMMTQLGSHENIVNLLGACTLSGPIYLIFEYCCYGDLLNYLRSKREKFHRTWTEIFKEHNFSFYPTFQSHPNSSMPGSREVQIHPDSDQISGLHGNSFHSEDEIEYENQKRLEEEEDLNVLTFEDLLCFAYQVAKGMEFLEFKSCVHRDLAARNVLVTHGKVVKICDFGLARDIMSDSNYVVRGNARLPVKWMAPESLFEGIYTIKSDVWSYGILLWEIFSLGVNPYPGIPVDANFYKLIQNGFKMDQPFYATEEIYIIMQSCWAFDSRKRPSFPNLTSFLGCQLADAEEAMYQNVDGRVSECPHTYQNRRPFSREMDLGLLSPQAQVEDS
T4 sequence (P54762 18-984): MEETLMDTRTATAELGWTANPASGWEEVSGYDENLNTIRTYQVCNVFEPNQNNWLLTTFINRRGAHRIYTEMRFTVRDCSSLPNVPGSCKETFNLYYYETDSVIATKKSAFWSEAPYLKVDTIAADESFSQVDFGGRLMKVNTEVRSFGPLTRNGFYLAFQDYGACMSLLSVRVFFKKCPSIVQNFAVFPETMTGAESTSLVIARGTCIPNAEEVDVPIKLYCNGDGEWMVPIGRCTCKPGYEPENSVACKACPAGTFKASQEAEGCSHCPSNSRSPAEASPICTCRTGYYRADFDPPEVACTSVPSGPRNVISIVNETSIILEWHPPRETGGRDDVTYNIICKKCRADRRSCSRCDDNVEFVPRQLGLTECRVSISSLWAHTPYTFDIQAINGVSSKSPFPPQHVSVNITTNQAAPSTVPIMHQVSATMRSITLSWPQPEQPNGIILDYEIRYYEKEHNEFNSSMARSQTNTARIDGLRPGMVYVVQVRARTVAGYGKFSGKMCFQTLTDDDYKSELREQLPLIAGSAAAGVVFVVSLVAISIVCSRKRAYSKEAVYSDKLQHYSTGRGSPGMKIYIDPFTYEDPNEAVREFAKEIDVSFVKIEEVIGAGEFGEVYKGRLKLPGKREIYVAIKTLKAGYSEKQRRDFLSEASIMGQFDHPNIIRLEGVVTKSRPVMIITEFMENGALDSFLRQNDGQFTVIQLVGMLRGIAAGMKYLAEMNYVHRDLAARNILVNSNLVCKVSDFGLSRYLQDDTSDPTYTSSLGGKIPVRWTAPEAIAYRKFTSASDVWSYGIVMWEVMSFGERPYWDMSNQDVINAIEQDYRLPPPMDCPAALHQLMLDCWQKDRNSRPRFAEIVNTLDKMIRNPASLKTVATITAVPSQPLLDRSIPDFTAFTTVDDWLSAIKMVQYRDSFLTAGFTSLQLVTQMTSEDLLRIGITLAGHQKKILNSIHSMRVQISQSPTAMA
T10 sequence (Q16620 32-822): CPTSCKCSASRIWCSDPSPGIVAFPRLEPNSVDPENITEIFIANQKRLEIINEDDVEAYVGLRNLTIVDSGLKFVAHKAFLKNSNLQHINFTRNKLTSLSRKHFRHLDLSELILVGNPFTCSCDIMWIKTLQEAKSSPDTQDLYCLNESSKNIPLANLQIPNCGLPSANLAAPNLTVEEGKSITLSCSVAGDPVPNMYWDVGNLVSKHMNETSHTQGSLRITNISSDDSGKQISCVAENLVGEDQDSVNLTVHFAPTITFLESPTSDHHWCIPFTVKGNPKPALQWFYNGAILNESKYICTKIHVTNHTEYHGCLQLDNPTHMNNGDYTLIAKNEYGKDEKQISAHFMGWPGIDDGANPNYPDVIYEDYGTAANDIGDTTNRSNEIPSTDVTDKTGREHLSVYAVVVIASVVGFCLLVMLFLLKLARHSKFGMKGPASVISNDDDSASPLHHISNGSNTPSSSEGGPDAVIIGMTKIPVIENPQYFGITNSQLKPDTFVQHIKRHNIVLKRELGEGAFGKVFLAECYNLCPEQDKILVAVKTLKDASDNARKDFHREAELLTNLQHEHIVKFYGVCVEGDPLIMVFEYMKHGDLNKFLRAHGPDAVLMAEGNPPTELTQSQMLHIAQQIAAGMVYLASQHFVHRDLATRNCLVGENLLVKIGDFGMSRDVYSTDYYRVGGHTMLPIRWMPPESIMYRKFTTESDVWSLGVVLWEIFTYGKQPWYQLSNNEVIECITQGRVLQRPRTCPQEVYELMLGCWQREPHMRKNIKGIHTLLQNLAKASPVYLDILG
T11 sequence (P06241 1-534 isoform P06241-2): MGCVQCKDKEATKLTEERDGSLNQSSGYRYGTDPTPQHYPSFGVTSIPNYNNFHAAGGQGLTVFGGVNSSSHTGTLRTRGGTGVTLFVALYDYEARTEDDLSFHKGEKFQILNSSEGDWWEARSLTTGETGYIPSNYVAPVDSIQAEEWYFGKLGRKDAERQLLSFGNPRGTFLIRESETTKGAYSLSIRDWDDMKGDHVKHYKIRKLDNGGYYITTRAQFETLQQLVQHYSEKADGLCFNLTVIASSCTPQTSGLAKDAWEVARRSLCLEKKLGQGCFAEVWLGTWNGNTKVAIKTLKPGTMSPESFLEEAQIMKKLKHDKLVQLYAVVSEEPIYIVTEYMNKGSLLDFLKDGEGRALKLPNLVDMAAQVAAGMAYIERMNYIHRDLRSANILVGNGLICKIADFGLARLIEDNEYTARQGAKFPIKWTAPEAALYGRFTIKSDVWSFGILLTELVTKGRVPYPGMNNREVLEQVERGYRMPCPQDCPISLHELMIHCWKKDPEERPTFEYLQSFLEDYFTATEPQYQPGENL

## [2H][C@@](C)(c1cccc(-c2ncc(OCC3CCN(C)CC3)cn2)c1)n1nc(-c2cccc(C#N)c2)ccc1=O [1D228]
MHCC97H
  IC50: 0.0043 µM
MKN45
  IC50: 0.001 µM
ASPC1
  IC50: 1.33 µM
HS746T
  IC50: 0.89 µM
BMX
  inhibition at 0.5 µM: 5.12%
FLT3
  inhibition at 0.5 µM: 17.9%
YES
  inhibition at 0.5 µM: 11.3%
EPHB1
  inhibition at 0.5 µM: -6.48%
FER
  inhibition at 0.5 µM: -13.3%
PDGFRβ
  inhibition at 0.5 µM: -3.95%
TEC
  inhibition at 0.5 µM: 8.29%
TIE2
  inhibition at 0.5 µM: -2.64%
ZAP70
  inhibition at 0.5 µM: -0.66%
TRKB
  inhibition at 0.5 µM: 97.1%
FYN [b]
  inhibition at 0.5 µM: 10.9%
FYN [a]
  inhibition at 0.5 µM: -7.78%
JAK2
  inhibition at 0.5 µM: 1.82%
MHCC97H xenograft tumor; 2 mg/kg
  Tumor growth inhibition (TGI): 81.2%
MHCC97H xenograft tumor; 4 mg/kg
  Tumor growth inhibition (TGI): 93.4%
MHCC97H xenograft tumor; 8 mg/kg
  Tumor growth inhibition (TGI): 98.2%
MNK45 cell line; annexin V / PI staining
  Apoptosis: 53–75%
MNK45 cell line
  Apoptosis, times higher than in the control group: 10–15 times
